Where two headings read alike, the source gives them in different places.
Key:
[1] = target: T1, L-selectin-lg fusion protein (Homo sapiens, UniProt P14151); experiment: Competition ELISA: binding of L-selectin-Ig to immobilized BSA-sLe^x
T1 construct: Each selectin-lg contains the lectin domain, epidermal growth factor domain, and one (L-selectin-lg), two (P-selectin-lg) or six (E-selectin-lg) complement regulatory repeats; made in house
Excerpt: Selectin-lg fusion proteins are recombinant chimeric molecules containing extracellular regions of selectins coupled to the hinge, CH2, and CH3 regions of human IgG1 (Aruffo, A., et al., Cell, 67:35, 1991; Walz, G., et al., Science, 250:1132, 1990). Each selectin-lg contains the lectin domain, epidermal growth factor domain, and one (L-selectin-lg), two (P-selectin-lg) or six (E-selectin-lg) complement regulatory repeats of the parent molecules. DNAs encoding selectin-Ig inserted in pCDM7 allowed transient expression of recombinant proteins in COS cells as previously described (Seed, B., et al., Proc. Natl. Acad. Sci., U.S.A., 84:3365, 1987; Aruffo, A., Current Protocols In Molecular Biology, eds. Ausubel, F. M., et al, 16:13.1, Greene Publishing Associates and Wiley-lnterscience, New York, N.Y., 1992). These DNAs were also ligated into pNUT (Palmiter, R. D., et al, Cell, 50:435, 1987) for amplification and stable expression in BHK cells. The fusion proteins were affinity purified from culture media using protein A (Pierce Chemical Company, Rockford, Ill.) or protein G (Pharmacia, Piscataway, N.J.) Sepharose, as previously described (Aruffo, A., et al., Cell, 67:35, 1991; Aruffo, A., Current Protocols In Molecular Biology, eds. Ausubel, F. M., et al, supra, 1992). Competition binding ELISAs using P- and E-selectin-lg were performed essentially as described (Nelson, R. M., et al., J. Clin. […] Selectin concentrations were from 10 to 30 nM. […] To increase L-selectin binding, an assay similar to that previously described was used (Foxall, C., et al., J. Cell Biol., 117:895, 1992), in which the L-selectin-lg (10-20 nM) was allowed to form aggregates with HRP-conjugated anti-lg antibody for 30 minutes prior to addition of inositols and incubation on the BSA-sLe^x -coated plate. IC50 values were calculated by fitting binding data to the equation: fraction of maximal binding=IC50 […] using nonlinear least squares analysis software (Origin, Microcal Inc, Northampton, Mass.). InsP6 (dodecasodium salt), InsS6 (hexapotassium salt), myo-inositol 1 monophosphate (cyclohexylammonium salt), and myo-inositol were from Sigma Chemical Company (St. Louis, Mo.). Stock solutions were prepared daily in 0.9% NaCl and sterilized by 0.22 μm filtration. InsP6 solutions were adjusted at pH 7.4 with HCl.
L-, P-, or E-selectin-lg fusion proteins were incubated for 2-3 hours on microtiter plates coated with the neoglycoprotein BSA-sLe^x, the plates washed, and bound selectin-lg was detected using a peroxidase-conjugated antibody directed against the lg portion and a chromogenic substrate. To determine blocking activity, solution-phase lnsP6 (.circle-solid.), InsS6 (.largecircle.), or inositol (.box-solid.) at the indicated concentrations were added to the solutions containing selectin-Ig fusion proteins prior to transfer to microtiter plates (competition ELISA).

selectin = experiment: Selectin-sulfatide interactions; type: binding
[2] = target: T1, L-selectin-lg fusion protein; experiment: LS 180 colon cancer cell adhesion to immobilized L-selectin-Ig; type: cell-based
Method: (§1) Cell adhesion assays on immobilized selectin-lg were performed essentially as described (Nelson, R. M., et al., J. Clin. Invest., 91:1157, 1993; Nelson, R. M., et al., Symposia on Quant. Biol., 57:271, 1992). Briefly, Nunclon Terasaki Microwell plates were coated overnight with 5 μl/well of a 5 μg/ml solution of protein A (Chemicon, Temecula, Calif.) in 50 mM carbonate buffer, pH 9.5. Protein-A-coated plates were washed with Dulbecco's phosphate buffered saline (PBS), incubated for 1 hour with L-, P-, or E-selectin-lg fusion proteins in PBS (5-20 μg/ml), washed again, and blocked with PBS containing 1% human serum albumin (HSA). To measure inhibition of cell adhesion, 5 μl/well of lnsP6 in PBS was added to the selectin-lg coated plates and incubated for 30 min at […]. LS 180 cells were harvested by brief trypsinization and resuspended at 1.5×10^6 cells/ml in PBS containing 1% HSA; five μl/well of suspension was added, and incubated for 30 min at 4° C. After washing to remove unbound cells, adherent cells were fixed with glutaraldehyde (2.5% in PBS) and counted. Symbols and error bars represent mean number of adherent cells/mm^2 ±s.e.m., counted in quadruplicate wells in a single experiment representative of three. No LS 180 cell adhesion was detected on plates coated with protein A alone, or on plates coated with protein A-captured CD8-lg fusion protein.
(§2) LS 180 cells (ATCC, Rockville, Md.) were added to cell culture wells containing protein A-captured selectin-lg fusion proteins and incubated for 30 min at 4° C. to allow adhesion. The plates were washed to remove unbound cells and adherent cells were counted microscopically. To determine adhesion blocking activity, InsP6 at the indicated concentrations was added to selectin-lg-coated wells 30 min prior to addition of LS 180 cells.

[3] = target: T2, P-selectin-lg fusion protein (Homo sapiens, UniProt P16109); experiment: LS 180 colon cancer cell adhesion to immobilized P-selectin-Ig; type: cell-based
T2 construct: Each selectin-lg contains the lectin domain, epidermal growth factor domain, and one (L-selectin-lg), two (P-selectin-lg) or six (E-selectin-lg) complement regulatory repeats; made in house
Method: as §1, §2

Row | blocking of L-selectin-Ig binding ([1]; BSA-sLe^x competition ELISA) | IC50 ([1]; BSA-sLe^x competition ELISA, read-out: IC50, L-selectin binding) | inhibition at 4000 µM ([2]; LS180, 4 mM, single experiment) | inhibition at 4000 µM ([3]; LS180, 4 mM, single experiment) | Compound | blocking of selectin-sulfatide interactions (selectin) | LS 180 adhesion to L-selectin-Ig [2] | LS 180 adhesion to P-selectin-Ig [3] | IC50 [1] | blocking of L-selectin-Ig at reduced Ca^2+ ([1]; Ca^2+ reduced to 0.15 mM)
1 | not myo-isositol, blocked binding |  |  |  | O[C@H]1[C@H](O)[C@@H](O)[C@H](O)[C@@H](O)[C@H]1O [myo-inositol, reference compound] | not inositol) blocked selectin-sulfatide interactions | inactive at concentrations up to 5 mM | inactive at concentrations up to 5 mM |  | 
2 |  |  |  |  | O=P(O)(O)O[C@H]1[C@H](OP(=O)(O)O)[C@@H](OP(=O)(O)O)[C@H](OP(=O)(O)O)[C@@H](OP(=O)(O)O)[C@H]1OP(=O)(O)O [InsP6, myo-inositol hexakisphosphate] | blocked selectin-sulfatide interactions at concentrations similar to those that were effective in blocking the binding to BSA-sLe^x | blocked the adhesion of LS 180 cells | blocked the adhesion of LS 180 cells | 3.1 ± 0.5 µM | not enhanced
3 |  | 210 ± 110 µM | ~45% | ~45% | O=S(=O)(O)O[C@H]1[C@H](OS(=O)(=O)O)[C@@H](OS(=O)(=O)O)[C@H](OS(=O)(=O)O)[C@@H](OS(=O)(=O)O)[C@H]1OS(=O)(=O)O [InsS6, myo-inositol hexakissulfate] | blocked selectin-sulfatide interactions at concentrations similar to those that were effective in blocking the binding to BSA-sLe^x |  |  |  | 

— patent US5827837A, “Polyanion anti-inflammatory agents” (priority 1996, dated 1998)
